Measurements from patent US12630529B2, “GCN2 modulator compounds” (ALESTA THERAPEUTICS BV, priority 2020, dated 2026).

What follows are molecules tested against T1, GCN2 (Mus musculus, UniProt Q9QZ05) (assay: GCN2 inhibition cell-based assay (P-GCN2 Western blot in Neuro 2a cells)). Settings: amino acid deprived media (DMEM lacking L-cysteine and methionine), 3 hours.
T1 construct: endogenous in cells; host or cells: Neuro 2a (N2a)
Method: Neuro 2a cells (N2a) were maintained at 37° C. and 5% CO2 in DMEM/F12 medium (Fisher Scientific) supplemented with 10% fetal bovine serum and 1% penicillin-streptomycin (complete medium). 300,000 cells/well were seeded in flat bottom 6 well plates 48 hours before treatment with the compounds.
Testing compounds were prepared at different concentrations ranging from 10 μM to 0.1 nM on DMEM medium lacking L-cysteine and methionine (DMEM-CM) (Gibco) and supplemented with 1% penicillin-streptomycin. Complete medium was used as control of non-stressed condition. After 48 hours, the medium was removed from each well and 2 mL per well of each treatment was added. Cells were treated for 3 hours at 37° C. and 5% CO2.
After the incubation time, each well was washed with sterile 1×PBS and then 100 μL of ice-cold lysis buffer supplemented with phosphatase and protease inhibitors was added. Lysates were transferred to 1.5 mL tubes and sonicated for 3 min, and total protein amounts were quantified using BCA assay (e.g., BCA Protein Assay Kit; Pierce) according to manufacturer instructions. Equal amount of proteins was loaded on SDS-PAGE gels for electrophoresis and then transferred onto 0.2 µm filter pore PVDF membranes.
Membranes were then blocked in blocking buffer containing 3% BSA/0.1% Tween/1×Tris-buffered saline (TBS) for 1 hour and then incubated overnight at 4° C. with agitation with anti-pGCN2 primary antibody (Abcam ab-75836), diluted 1:1,000 in blocking buffer. […] (Sigma Aldrich) was used as a loading control.
Membranes were then incubated with the corresponding secondary antibody to detect immune-reactive bands using enhanced chemiluminescence (e.g., ECL Western Blotting Substrate Pierce).
Images were acquired (e.g., using Chemidoc™ equipment) and quantitated by densitometry using ImageJ software. IC50 values were determined from a concentration-response curve using GraphPad prism software.
IC50 values from P-GCN2 inhibition assay after induction with amino acid deprived media in the presence of different concentrations of test compounds are shown in Table 2. For IC50 values: +++ refers to <10 nM of test compound; ++ refers to 10 nM to 100 nM of test compound; + refers to 100 nM to 1,000 nM of test compound and − refers to >1,000 nM of test compound.
Under GCN2-mediated stress conditions, resulting from an amino acid deprived medium, GCN2 is generally phosphorylated. Accordingly, inhibition of GCN2 phosphorylation as a result of the test compound indicates inhibition of the GCN2 pathway.

T1 sequence (Q9QZ05 whole entry): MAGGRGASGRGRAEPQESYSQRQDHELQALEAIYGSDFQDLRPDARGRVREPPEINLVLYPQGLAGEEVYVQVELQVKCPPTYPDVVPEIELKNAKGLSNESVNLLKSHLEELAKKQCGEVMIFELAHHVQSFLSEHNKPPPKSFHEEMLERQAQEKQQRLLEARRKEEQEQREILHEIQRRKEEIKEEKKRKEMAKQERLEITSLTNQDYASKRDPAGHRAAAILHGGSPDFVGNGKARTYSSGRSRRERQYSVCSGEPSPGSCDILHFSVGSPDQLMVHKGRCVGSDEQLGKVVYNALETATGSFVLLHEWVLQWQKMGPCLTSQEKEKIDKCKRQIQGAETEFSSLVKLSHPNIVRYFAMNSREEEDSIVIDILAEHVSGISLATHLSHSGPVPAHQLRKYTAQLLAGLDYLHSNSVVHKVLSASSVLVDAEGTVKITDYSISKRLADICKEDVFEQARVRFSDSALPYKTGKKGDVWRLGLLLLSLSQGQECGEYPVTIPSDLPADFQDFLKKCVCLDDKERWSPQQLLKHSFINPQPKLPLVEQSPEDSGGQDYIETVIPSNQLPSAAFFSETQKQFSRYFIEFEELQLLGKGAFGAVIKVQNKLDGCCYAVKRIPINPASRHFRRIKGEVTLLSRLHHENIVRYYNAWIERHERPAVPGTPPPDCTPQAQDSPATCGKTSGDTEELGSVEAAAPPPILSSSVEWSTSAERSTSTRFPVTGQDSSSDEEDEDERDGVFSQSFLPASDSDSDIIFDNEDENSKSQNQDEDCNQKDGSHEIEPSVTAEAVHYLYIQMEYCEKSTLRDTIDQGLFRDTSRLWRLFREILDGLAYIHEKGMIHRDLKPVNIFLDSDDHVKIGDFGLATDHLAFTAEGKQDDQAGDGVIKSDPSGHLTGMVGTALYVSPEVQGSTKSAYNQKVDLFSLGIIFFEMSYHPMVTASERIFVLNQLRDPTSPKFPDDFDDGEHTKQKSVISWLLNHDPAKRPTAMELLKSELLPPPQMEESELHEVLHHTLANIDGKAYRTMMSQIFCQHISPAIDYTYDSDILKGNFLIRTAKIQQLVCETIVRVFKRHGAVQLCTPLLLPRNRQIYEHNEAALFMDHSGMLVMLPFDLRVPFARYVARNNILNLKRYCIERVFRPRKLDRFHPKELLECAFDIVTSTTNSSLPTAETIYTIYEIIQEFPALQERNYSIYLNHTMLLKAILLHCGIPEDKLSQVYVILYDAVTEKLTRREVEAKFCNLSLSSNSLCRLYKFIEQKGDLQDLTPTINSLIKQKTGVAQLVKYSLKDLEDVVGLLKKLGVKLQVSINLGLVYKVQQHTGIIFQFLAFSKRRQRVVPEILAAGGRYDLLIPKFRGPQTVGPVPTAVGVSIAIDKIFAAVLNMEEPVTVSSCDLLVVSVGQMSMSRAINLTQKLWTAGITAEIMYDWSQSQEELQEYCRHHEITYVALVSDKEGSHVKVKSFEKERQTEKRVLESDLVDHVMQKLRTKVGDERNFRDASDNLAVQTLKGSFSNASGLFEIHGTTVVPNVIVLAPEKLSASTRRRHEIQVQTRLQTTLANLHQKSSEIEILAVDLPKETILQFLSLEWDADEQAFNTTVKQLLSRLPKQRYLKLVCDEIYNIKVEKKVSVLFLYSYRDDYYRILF

| IC50 [µM] | Structure (SMILES) |
| --- | --- |
| > 1 | Nc1ncc2cc(-c3c(F)ccc(NS(=O)(=O)c4cc(F)ccc4F)c3F)ccc2n1 [Compound 8] |
| 0.1 to 1 | Nc1ncc2cc(-c3c(F)ccc(NS(=O)(=O)c4ccc(Cl)c(Cl)c4)c3F)ccc2n1 [Compound 9] |
| < 0.01 | COc1ccc(Cl)cc1S(=O)(=O)Nc1ccc(F)c(-c2ccc3nc(N)ncc3c2)c1F [Compound 10] |
| 0.01 to 0.1 | Cc1c(NS(=O)(=O)c2cc(Cl)ccc2Cl)cccc1-c1ccc2nc(N)ncc2c1 [Compound 11] |
| > 1 | Nc1ncc2cc(-c3ccc(F)c(NS(=O)(=O)c4cc(Cl)ccc4Cl)c3F)ccc2n1 [Compound 12] |
| < 0.01 | Nc1ncc2cc(-c3cccc(NS(=O)(=O)c4cc(Cl)ccc4Cl)c3F)ccc2n1 [Compound 13] |
| > 1 | Nc1ncc2cc(-c3cc(F)cc(NS(=O)(=O)c4cc(Cl)ccc4Cl)c3)ccc2n1 [Compound 14] |
| 0.1 to 1 | Nc1ncc2cc(-c3c(F)ccc(N[S+]([O-])c4ccc(Cl)cc4Cl)c3F)ccc2n1 (stereo not drawn) [Compound 15] |
| 0.1 to 1 | Cc1ccc(NS(=O)(=O)c2cc(Cl)ccc2Cl)cc1-c1ccc2nc(N)ncc2c1 [Compound 16] |
| > 1 | Nc1ncnc2ccc(-c3c(F)ccc(NS(=O)(=O)c4cc(Cl)ccc4Cl)c3F)cc12 [Compound 17] |
| > 1 | O=S(=O)(Nc1ccc(F)c(-c2cc(F)c3[nH]cnc3c2)c1F)c1cc(Cl)ccc1Cl [Compound 18] |
| 0.1 to 1 | COc1ncc(Cl)cc1S(=O)(=O)Nc1ccc(F)c(-c2ccc3nc(N)ncc3c2)c1 [Compound 19] |
| > 1 | COc1ncc(Cl)cc1S(=O)(=O)Nc1ccc(F)c(-c2ccc3nc(N)ccc3c2)c1F [Compound 20] |
| > 1 | COc1ncc(Cl)cc1S(=O)(=O)Nc1ccc(F)c(-c2cccc3cnc(N)nc23)c1F [Compound 44] |
| > 1 | COc1ncc(Cl)cc1S(=O)(=O)Nc1ccc(F)c(-c2cccc3nc(N)ncc23)c1F [Compound 45] |
| < 0.01 | COc1ncc(Cl)cc1S(=O)(=O)Nc1ccc(F)c(-c2ccc3nc(NCCO)ncc3c2)c1F [Compound 46] |
| < 0.01 | CNc1ncc2cc(-c3c(F)ccc(NS(=O)(=O)c4cc(Cl)cnc4OC)c3F)ccc2n1 [Compound 47] |
| < 0.01 | COc1ncc(Cl)cc1S(=O)(=O)Nc1cccc(-c2ccc3nc(N)ncc3c2)c1C [Compound 51] |
| < 0.01 | Nc1ncc2cc(-c3c(F)ccc(NS(=O)(=O)c4cc(Cl)ccc4C(F)(F)F)c3F)ccc2n1 [Compound 58] |
| < 0.01 | Nc1ncc2cc(-c3c(F)ccc(NS(=O)(=O)c4cc(Cl)cc(Cl)c4)c3F)ccc2n1 [Compound 59] |
| 0.01 to 0.1 | Nc1ncc2cc(-c3c(F)ccc(NS(=O)(=O)c4cc(Cl)cc(C(F)(F)F)c4)c3F)ccc2n1 [Compound 63] |
| < 0.01 | Nc1ncc2cc(-c3c(F)ccc(NS(=O)(=O)c4cccc5cnccc45)c3F)ccc2n1 [Compound 64] |
| < 0.01 | COc1ncc(Cl)cc1S(=O)(=O)Nc1ccc(F)c(-c2ccc3nc(N[C@H]4CC[C@H](O)CC4)ncc3c2)c1F [Compound 65] |
| < 0.01 | COc1ncc(Cl)cc1S(=O)(=O)Nc1ccc(F)c(-c2ccc3nc(N[C@H](C)CO)ncc3c2)c1F [Compound 66] |
| < 0.01 | O=S(=O)(Nc1ccc(F)c(-c2ccc3nc(N[C@H]4CC[C@H](O)CC4)ncc3c2)c1F)c1cc(Cl)ccc1Cl [Compound 67] |
| < 0.01 | O=S(=O)(Nc1ccc(F)c(-c2ccc3nc(N[C@H]4CC[C@H](O)CC4)ncc3c2)c1F)c1cc(Cl)cc(CO)c1Cl [Compound 69] |
| > 1 | Nc1ncc2cc(-c3cccc4c3ccn4S(=O)(=O)c3cc(Cl)ccc3Cl)ccc2n1 [Compound 76] |
| > 1 | Nc1ncc2cc(-c3c(F)ccc(NS(=O)(=O)C4CCCCC4)c3F)ccc2n1 [Compound 81] |
| 0.01 to 0.1 | COc1ncc(Cl)cc1S(=O)(=O)Nc1ccc(F)c(-c2ccc3nc(NC(=O)C(C)(C)C)ncc3c2)c1F [Compound 105] |
| < 0.01 | CC(=O)Nc1ncc2cc(-c3c(F)ccc(NS(=O)(=O)c4cc(Cl)ccc4Cl)c3F)ccc2n1 [Compound 106] |
